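Interpolation was linear, between the two tested concentrations surrounding the appropriate level; five concentrations were tested over 48 hours in 96-well plates. TGI: total growth inhibition.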
What was measured:
Test in all cases: growth of human tumour cells (NCI), 48 h
786-0 renal = tested on: 786-0 renal
A498 renal = tested on: A498 renal
A549 NSCLC = tested on: A549 NSCLC
CAKI-1 renal = tested on: CAKI-1 renal
COLO 205 colon = tested on: COLO 205 colon
DU-145 prostate = tested on: DU-145 prostate
EKVX NSCLC = tested on: EKVX NSCLC
HCC-2998 colon = tested on: HCC-2998 colon
HCT-116 colon = tested on: HCT-116 colon
HCT-15 colon = tested on: HCT-15 colon
HL-60(TB) leukemia = tested on: HL-60(TB) leukemia
HOP-92 NSCLC = tested on: HOP-92 NSCLC
HT29 colon = tested on: HT29 colon
IGROV1 ovarian = tested on: IGROV1 ovarian
K-562 leukemia = tested on: K-562 leukemia
LOX IMVI melanoma = tested on: LOX IMVI melanoma
MCF7 breast = tested on: MCF7 breast
MDA-MB-231 breast = tested on: MDA-MB-231 breast
MDA-MB-435 = tested on: MDA-MB-435
NCI-H226 lung = tested on: NCI-H226 lung
NCI-H23 lung = tested on: NCI-H23 lung
NCI-H460 lung = tested on: NCI-H460 lung
NCI-H522 lung = tested on: NCI-H522 lung
NCI/ADR-RES ovarian = tested on: NCI/ADR-RES ovarian
OVCAR-3 ovarian = tested on: OVCAR-3 ovarian
OVCAR-4 ovarian = tested on: OVCAR-4 ovarian
OVCAR-5 ovarian = tested on: OVCAR-5 ovarian
OVCAR-8 ovarian = tested on: OVCAR-8 ovarian
PC-3 prostate = tested on: PC-3 prostate
RPMI-8226 leukemia = tested on: RPMI-8226 leukemia
RXF 393 renal = tested on: RXF 393 renal
SF-268 CNS = tested on: SF-268 CNS
SF-295 CNS = tested on: SF-295 CNS
SF-539 CNS = tested on: SF-539 CNS
SK-MEL-2 melanoma = tested on: SK-MEL-2 melanoma
SK-MEL-28 melanoma = tested on: SK-MEL-28 melanoma
SK-MEL-5 melanoma = tested on: SK-MEL-5 melanoma
SK-OV-3 ovarian = tested on: SK-OV-3 ovarian
SN12C renal = tested on: SN12C renal
SNB-19 CNS = tested on: SNB-19 CNS
SNB-75 CNS = tested on: SNB-75 CNS
SW-620 colon = tested on: SW-620 colon
T-47D breast = tested on: T-47D breast
TK-10 renal = tested on: TK-10 renal
U251 CNS = tested on: U251 CNS
UACC-257 melanoma = tested on: UACC-257 melanoma
UACC-62 melanoma = tested on: UACC-62 melanoma
UO-31 renal = tested on: UO-31 renal
ACHN renal = tested on: ACHN renal
BT-549 breast = tested on: BT-549 breast
HOP-62 NSCLC = tested on: HOP-62 NSCLC
KM12 colon = tested on: KM12 colon
M14 melanoma = tested on: M14 melanoma
MOLT-4 leukemia = tested on: MOLT-4 leukemia
HS 578T breast = tested on: HS 578T breast
MALME-3M melanoma = tested on: MALME-3M melanoma
SR leukemia = tested on: SR leukemia
CCRF-CEM leukemia = tested on: CCRF-CEM leukemia

## COc1ccc(Nc2nc(N)c(C(=O)c3ccc(OC)cc3)s2)cc1
786-0 renal
  TGI: > 41.9 µM
A498 renal
  TGI: > 64.7 µM
A549 NSCLC
  TGI: > 44.5 µM
CAKI-1 renal
  TGI: > 48.6 µM
COLO 205 colon
  TGI: > 100 µM
DU-145 prostate
  TGI: 6.94 µM
EKVX NSCLC
  TGI: > 89.1 µM
HCC-2998 colon
  TGI: > 29.7 µM
HCT-116 colon
  TGI: > 28.9 µM
HCT-15 colon
  TGI: > 100 µM
HL-60(TB) leukemia
  TGI: 0.802 µM
HOP-92 NSCLC
  TGI: > 86.5 µM
HT29 colon
  TGI: > 48.5 µM
IGROV1 ovarian
  TGI: 32 µM
K-562 leukemia
  TGI: > 35.8 µM
LOX IMVI melanoma
  TGI: > 100 µM
MCF7 breast
  TGI: > 100 µM
MDA-MB-231 breast
  TGI: > 72.4 µM
MDA-MB-435
  TGI: 0.208 µM
NCI-H226 lung
  TGI: 75.8 µM
NCI-H23 lung
  TGI: > 93.4 µM
NCI-H460 lung
  TGI: > 54.8 µM
NCI-H522 lung
  TGI: 0.455 µM
NCI/ADR-RES ovarian
  TGI: > 100 µM
OVCAR-3 ovarian
  TGI: 2.1 µM
OVCAR-4 ovarian
  TGI: > 100 µM
OVCAR-5 ovarian
  TGI: > 100 µM
OVCAR-8 ovarian
  TGI: > 74.5 µM
PC-3 prostate
  TGI: 22.1 µM
RPMI-8226 leukemia
  TGI: 0.659 µM
RXF 393 renal
  TGI: 4.55 µM
SF-268 CNS
  TGI: > 100 µM
SF-295 CNS
  TGI: 40.6 µM
SF-539 CNS
  TGI: 23 µM
SK-MEL-2 melanoma
  TGI: > 55.4 µM
SK-MEL-28 melanoma
  TGI: > 68.6 µM
SK-MEL-5 melanoma
  TGI: > 100 µM
SK-OV-3 ovarian
  TGI: 28.7 µM
SN12C renal
  TGI: > 64.5 µM
SNB-19 CNS
  TGI: > 49.5 µM
SNB-75 CNS
  TGI: 6.26 µM
SW-620 colon
  TGI: > 37.5 µM
T-47D breast
  TGI: > 100 µM
TK-10 renal
  TGI: > 60.7 µM
U251 CNS
  TGI: 17.2 µM
UACC-257 melanoma
  TGI: > 100 µM
UACC-62 melanoma
  TGI: > 100 µM
UO-31 renal
  TGI: 44.3 µM

## NC(=O)C(=CN1C(=O)CC(=O)NC1=S)C(N)=O
786-0 renal
  TGI: > 100 µM
A498 renal
  TGI: > 100 µM
A549 NSCLC
  TGI: > 100 µM
ACHN renal
  TGI: > 100 µM
BT-549 breast
  TGI: > 100 µM
CAKI-1 renal
  TGI: > 100 µM
COLO 205 colon
  TGI: > 100 µM
DU-145 prostate
  TGI: > 100 µM
EKVX NSCLC
  TGI: > 100 µM
HCC-2998 colon
  TGI: > 100 µM
HCT-116 colon
  TGI: > 100 µM
HCT-15 colon
  TGI: > 100 µM
HL-60(TB) leukemia
  TGI: > 100 µM
HOP-62 NSCLC
  TGI: > 100 µM
HOP-92 NSCLC
  TGI: > 100 µM
HT29 colon
  TGI: > 100 µM
IGROV1 ovarian
  TGI: > 100 µM
KM12 colon
  TGI: > 100 µM
LOX IMVI melanoma
  TGI: > 100 µM
M14 melanoma
  TGI: > 100 µM
MCF7 breast
  TGI: > 100 µM
MDA-MB-231 breast
  TGI: > 100 µM
MDA-MB-435
  TGI: > 100 µM
MOLT-4 leukemia
  TGI: > 100 µM
NCI-H226 lung
  TGI: > 100 µM
NCI-H23 lung
  TGI: > 100 µM
NCI-H460 lung
  TGI: > 100 µM
NCI/ADR-RES ovarian
  TGI: > 100 µM
OVCAR-3 ovarian
  TGI: > 100 µM
OVCAR-4 ovarian
  TGI: > 100 µM
OVCAR-5 ovarian
  TGI: > 100 µM
OVCAR-8 ovarian
  TGI: > 100 µM
RXF 393 renal
  TGI: > 100 µM
SF-268 CNS
  TGI: > 100 µM
SF-295 CNS
  TGI: > 100 µM
SF-539 CNS
  TGI: > 100 µM
SK-MEL-2 melanoma
  TGI: > 100 µM
SK-MEL-28 melanoma
  TGI: > 100 µM
SK-MEL-5 melanoma
  TGI: > 100 µM
SK-OV-3 ovarian
  TGI: > 100 µM
SN12C renal
  TGI: > 100 µM
SNB-19 CNS
  TGI: > 100 µM
SNB-75 CNS
  TGI: > 100 µM
SW-620 colon
  TGI: > 100 µM
T-47D breast
  TGI: > 100 µM
TK-10 renal
  TGI: > 100 µM
U251 CNS
  TGI: > 100 µM
UACC-257 melanoma
  TGI: > 100 µM
UO-31 renal
  TGI: > 100 µM

## CC(=N/NC(=S)Nc1c(C)n(C)n(-c2ccccc2)c1=O)/C(C)=N\NC(=S)Nc1c(C)n(C)n(-c2ccccc2)c1=O
786-0 renal
  TGI: > 100 µM
A498 renal
  TGI: > 100 µM
A549 NSCLC
  TGI: > 100 µM
ACHN renal
  TGI: > 100 µM
BT-549 breast
  TGI: > 100 µM
CAKI-1 renal
  TGI: > 100 µM
COLO 205 colon
  TGI: > 100 µM
DU-145 prostate
  TGI: > 100 µM
EKVX NSCLC
  TGI: > 100 µM
HCC-2998 colon
  TGI: > 100 µM
HCT-116 colon
  TGI: > 100 µM
HCT-15 colon
  TGI: > 100 µM
HL-60(TB) leukemia
  TGI: > 100 µM
HOP-62 NSCLC
  TGI: > 100 µM
HOP-92 NSCLC
  TGI: > 100 µM
HS 578T breast
  TGI: > 100 µM
HT29 colon
  TGI: > 100 µM
KM12 colon
  TGI: > 100 µM
M14 melanoma
  TGI: > 100 µM
MALME-3M melanoma
  TGI: > 100 µM
MDA-MB-231 breast
  TGI: > 100 µM
MDA-MB-435
  TGI: > 100 µM
MOLT-4 leukemia
  TGI: > 100 µM
NCI-H226 lung
  TGI: > 100 µM
NCI-H23 lung
  TGI: > 100 µM
NCI-H460 lung
  TGI: > 100 µM
NCI-H522 lung
  TGI: > 100 µM
NCI/ADR-RES ovarian
  TGI: > 100 µM
OVCAR-3 ovarian
  TGI: > 100 µM
OVCAR-4 ovarian
  TGI: > 100 µM
OVCAR-5 ovarian
  TGI: > 100 µM
OVCAR-8 ovarian
  TGI: > 100 µM
PC-3 prostate
  TGI: > 100 µM
RXF 393 renal
  TGI: > 100 µM
SF-268 CNS
  TGI: > 100 µM
SF-295 CNS
  TGI: > 100 µM
SF-539 CNS
  TGI: > 100 µM
SK-MEL-2 melanoma
  TGI: > 100 µM
SK-MEL-5 melanoma
  TGI: > 100 µM
SK-OV-3 ovarian
  TGI: > 100 µM
SNB-19 CNS
  TGI: > 100 µM
SNB-75 CNS
  TGI: > 100 µM
SR leukemia
  TGI: > 100 µM
SW-620 colon
  TGI: > 100 µM
T-47D breast
  TGI: > 100 µM
TK-10 renal
  TGI: > 100 µM
U251 CNS
  TGI: > 100 µM
UACC-257 melanoma
  TGI: > 100 µM
UACC-62 melanoma
  TGI: > 100 µM
UO-31 renal
  TGI: > 100 µM

## Nc1nc(N)nc(-c2cnccn2)n1
786-0 renal
  TGI: > 100 µM
A498 renal
  TGI: > 100 µM
A549 NSCLC
  TGI: > 100 µM
ACHN renal
  TGI: > 100 µM
BT-549 breast
  TGI: > 100 µM
CAKI-1 renal
  TGI: > 100 µM
CCRF-CEM leukemia
  TGI: > 100 µM
COLO 205 colon
  TGI: > 100 µM
DU-145 prostate
  TGI: > 100 µM
EKVX NSCLC
  TGI: > 100 µM
HCC-2998 colon
  TGI: > 100 µM
HCT-116 colon
  TGI: > 100 µM
HCT-15 colon
  TGI: > 100 µM
HOP-62 NSCLC
  TGI: > 100 µM
HOP-92 NSCLC
  TGI: > 100 µM
IGROV1 ovarian
  TGI: > 100 µM
K-562 leukemia
  TGI: > 100 µM
KM12 colon
  TGI: > 100 µM
LOX IMVI melanoma
  TGI: > 100 µM
M14 melanoma
  TGI: > 100 µM
MALME-3M melanoma
  TGI: > 100 µM
MCF7 breast
  TGI: > 100 µM
MDA-MB-231 breast
  TGI: > 100 µM
MDA-MB-435
  TGI: > 100 µM
MOLT-4 leukemia
  TGI: > 100 µM
NCI-H226 lung
  TGI: > 100 µM
NCI-H23 lung
  TGI: > 100 µM
NCI-H460 lung
  TGI: > 100 µM
NCI-H522 lung
  TGI: > 100 µM
NCI/ADR-RES ovarian
  TGI: > 100 µM
OVCAR-3 ovarian
  TGI: > 100 µM
OVCAR-5 ovarian
  TGI: > 100 µM
OVCAR-8 ovarian
  TGI: > 100 µM
PC-3 prostate
  TGI: > 100 µM
RXF 393 renal
  TGI: > 100 µM
SF-268 CNS
  TGI: > 100 µM
SF-295 CNS
  TGI: > 100 µM
SF-539 CNS
  TGI: > 100 µM
SK-MEL-2 melanoma
  TGI: > 100 µM
SK-MEL-28 melanoma
  TGI: > 100 µM
SK-OV-3 ovarian
  TGI: > 100 µM
SN12C renal
  TGI: > 100 µM
SNB-19 CNS
  TGI: > 100 µM
SNB-75 CNS
  TGI: > 100 µM
SR leukemia
  TGI: > 100 µM
SW-620 colon
  TGI: > 100 µM
T-47D breast
  TGI: > 100 µM
TK-10 renal
  TGI: > 100 µM
U251 CNS
  TGI: > 100 µM
UACC-257 melanoma
  TGI: > 100 µM
UACC-62 melanoma
  TGI: > 100 µM
UO-31 renal
  TGI: > 100 µM

From PubChem BioAssay (NCI)
